Test system: 931267-113-T-J1-PDC KRAS spheroid with HUVEC/MSC, viability
Assay: Anticancer human tumor 931267-113-T-J1-PDC patient-derived colon adenocarcinoma cell line growth inhibition [KRAS2]
Details: for IC50: curve of first compound; for viability, T/C: stronger effect = lower value
Description: Multicellular complex tumor spheroid response to RAS pathway inhibitors in combination with a targeted agents in patient-derived cell lines with oncogenic KRAS variants from multiple cancer types
A high-throughput screen of multi-cell type tumor spheroids was designed to identify active combinations of targeted small molecules and KRAS pathway inhibitors. Complex spheroids include a stromal component modeled by human endothelial cells (HUVEC) and fibroblasts modeled by human mesenchymal stem cells (MSCs). The concentration ranges selected for each drug and investigational agent were based upon clinically achievable concentrations if the clinical Cmax of the agent was known.
Compounds. The drugs and investigational agents: BI-3406 (NSC825286), BAY-293 (NSC824723), batoprotafib (TNO155; NSC825523), sotorasib (AMG 510; NSC818433), MRTX1257 (NSC819558), elimusertib (BAY 1895344; NSC800525), molibresib (GSK525762; NSC774829), temuterkib (LY3214996; NSC803410), venetoclax (NSC766270), alisertib (NSC759677), olaparib (NSC753686), talazoparib (NSC767125), erdafitinib (NSC781556), ipatasertib (NSC767898), cabozantinib (NSC761068), nintedanib (NSC756659), abemaciclib (NSC768073), docetaxel (NSC628503), trametinib (NSC758246), and sapanisertib (NSC764658) were obtained from the National Cancer Institute (NCI) Developmental Therapeutics Program Chemical Repository. The FDA-approved anticancer drug set is available from the Developmental Therapeutics Program. […] The stock solutions were prepared in dimethyl sulfoxide (DMSO, Sigma-Aldrich, St. Louis, MO, cat. D2650) at 800-fold the tested concentration and stored at -70 degrees C prior to their use. All drugs and investigational agents were tested over a range starting from a high concentration at or near the clinical Cmax and decreasing in half-log increments. If the clinical Cmax for an agent had not been determined, the highest concentration tested was 10 microM.
Cell Culture. All cells were maintained in an incubator at 37 degrees C and 5% CO2 with 95% humidity. The PDC lines were cultured according to standard operating procedures established by the NCI PDMR (https://pdmr.cancer.gov/sops/default.htm). Briefly, all PDCs were thawed and cultured in Matrigel-coated flasks prepared with a working solution of 1X Ham's F-12 nutrient mix, without supplementation (Invitrogen, Waltham, MA, cat. 11765054), 100 U/mL penicillin-streptomycin (Invitrogen, cat. 15140122), and 2.5% Matrigel (Corning Inc., Corning, NY, cat. 354248) for the first three passages. All PDCs were cultured in complete DMEM/F-12 media containing advanced DMEM/F-12 (Invitrogen, cat. 12634028), 4.9% defined fetal bovine serum, heat inactivated (HyClone Laboratories Inc., Logan, UT, cat. SH30070.03HI), 389 ng/mL hydrocortisone (Sigma-Aldrich, cat. H4001), 9.7 ng/mL human EGF recombinant protein (Invitrogen, cat. PHG0313), 23.4 microg/mL adenine (Sigma-Aldrich, cat. A2786), 97.3 U/mL penicillin-streptomycin (Invitrogen, cat. 15140122), 1.9 mM L-glutamine (Invitrogen, cat. 25030081), and 9.7 microM Y-27632 dihydrochloride (Tocris Bioscience, Bristol, United Kingdom, cat. 1254). The PDCs were cultured in complete DMEM/F12 media without 9.7 microM Y-27632 dihydrochloride for at least two passages prior to the screen. The established cell line HOP-62 was cultured in RPMI 1640 medium, HEPES (Invitrogen, cat. 22400105) with 10% defined fetal bovine serum (HyClone Laboratories Inc., cat. SH30070.03) and 2 mM L-glutamine (Invitrogen, cat. 25030081). The pooled donor HUVEC were cultured in endothelial cell growth medium 2 (PromoCell, Heidelberg, Germany, cat. C-22011) and the hMSC were cultured in mesenchymal stem cell growth medium 2 (PromoCell, cat. C-28009). For all experiments, HUVEC and hMSC were used at passages </=5, while the malignant cell lines were used at passages </=15. […]

[1] = second compound 0.1 µM, first compound 0.0316 µM
[2] = second compound 0.316 µM, first compound 0.0316 µM
[3] = second compound 1 µM, first compound 0.0316 µM
[4] = second compound 3.16 µM, first compound 0.0316 µM
[5] = second compound 10 µM, first compound 0.0316 µM
[6] = second compound 0.1 µM, first compound 0.1 µM
[7] = second compound 0.1 µM, first compound 0.316 µM
[8] = second compound 0.1 µM, first compound 1 µM
[9] = second compound 0.1 µM, first compound 3.16 µM
[10] = second compound 0.1 µM, first compound 10 µM
[11] = second compound 0.316 µM, first compound 0.1 µM
[12] = second compound 0.316 µM, first compound 0.316 µM
[13] = second compound 0.316 µM, first compound 1 µM
[14] = second compound 0.316 µM, first compound 3.16 µM
[15] = second compound 0.316 µM, first compound 10 µM
[16] = second compound 1 µM, first compound 0.1 µM
[17] = second compound 1 µM, first compound 0.316 µM
[18] = second compound 1 µM, first compound 1 µM
[19] = second compound 1 µM, first compound 3.16 µM
[20] = second compound 1 µM, first compound 10 µM
[21] = second compound 3.16 µM, first compound 0.1 µM
[22] = second compound 3.16 µM, first compound 0.316 µM
[23] = second compound 3.16 µM, first compound 1 µM
[24] = second compound 3.16 µM, first compound 3.16 µM
[25] = second compound 3.16 µM, first compound 10 µM
[26] = second compound 10 µM, first compound 0.1 µM
[27] = second compound 10 µM, first compound 0.316 µM
[28] = second compound 10 µM, first compound 1 µM
[29] = second compound 10 µM, first compound 3.16 µM
[30] = second compound 10 µM, first compound 10 µM
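Also: compound exposure lasted 7 days before the readout.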
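For viability, T/C in this document: 100% = DMSO vehicle control viability.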

CC(=O)Nc1cccc(-n2c(=O)n(C3CC3)c(=O)c3c(Nc4ccc(I)cc4F)n(C)c(=O)c(C)c32)c1 + C=CC(=O)N1CCN(c2nc(=O)n(-c3c(C)ccnc3C(C)C)c3nc(-c4c(O)cccc4F)c(F)cc23)C(C)C1
IC50 (second compound 0.1 µM): 10.5 nM
IC50 (second compound 0.316 µM): 9.41 nM
IC50 (second compound 1 µM): 11.3 nM
IC50 (second compound 3.16 µM): 31.6 nM
IC50 (second compound 10 µM): 2.79 nM
viability, T/C (second compound 0.1 µM, first compound 0.0001 µM): 88.7%
viability, T/C (second compound 0.1 µM, first compound 0.000316 µM): 81.9%
viability, T/C (second compound 0.1 µM, first compound 0.001 µM): 66.7%
viability, T/C (second compound 0.1 µM, first compound 0.00316 µM): 60.1%
viability, T/C (second compound 0.1 µM, first compound 0.01 µM): 62.9%
viability, T/C [1]: 9.67%
viability, T/C (second compound 0.316 µM, first compound 0.0001 µM): 97.1%
viability, T/C (second compound 0.316 µM, first compound 0.000316 µM): 94.5%
viability, T/C (second compound 0.316 µM, first compound 0.001 µM): 74.1%
viability, T/C (second compound 0.316 µM, first compound 0.00316 µM): 71.3%
viability, T/C (second compound 0.316 µM, first compound 0.01 µM): 53.8%
viability, T/C [2]: 10.6%
viability, T/C (second compound 1 µM, first compound 0.0001 µM): 88.5%
viability, T/C (second compound 1 µM, first compound 0.000316 µM): 97.4%
viability, T/C (second compound 1 µM, first compound 0.001 µM): 93.9%
viability, T/C (second compound 1 µM, first compound 0.00316 µM): 59.5%
viability, T/C (second compound 1 µM, first compound 0.01 µM): 62.6%
viability, T/C [3]: 12.9%
viability, T/C (second compound 3.16 µM, first compound 0.0001 µM): 123%
viability, T/C (second compound 3.16 µM, first compound 0.000316 µM): 99%
viability, T/C (second compound 3.16 µM, first compound 0.001 µM): 62.8%
viability, T/C (second compound 3.16 µM, first compound 0.00316 µM): 54%
viability, T/C (second compound 3.16 µM, first compound 0.01 µM): 64.7%
viability, T/C [4]: 19.6%
viability, T/C (second compound 10 µM, first compound 0.0001 µM): 85.8%
viability, T/C (second compound 10 µM, first compound 0.000316 µM): 82.4%
viability, T/C (second compound 10 µM, first compound 0.001 µM): 49.1%
viability, T/C (second compound 10 µM, first compound 0.00316 µM): 50.9%
viability, T/C (second compound 10 µM, first compound 0.01 µM): 44.7%
viability, T/C [5]: 28.3%

COc1cc(Nc2ncc3c(n2)-c2ccc(Cl)cc2C(c2c(F)cccc2OC)=NC3)ccc1C(=O)O + C=CC(=O)N1CCN(c2nc(=O)n(-c3c(C)ccnc3C(C)C)c3nc(-c4c(O)cccc4F)c(F)cc23)C(C)C1
IC50 (second compound 0.1 µM): > 10000 nM
IC50 (second compound 0.316 µM): > 10000 nM
IC50 (second compound 1 µM): > 10000 nM
IC50 (second compound 3.16 µM): > 10000 nM
IC50 (second compound 10 µM): > 10000 nM
viability, T/C [1]: 102%
viability, T/C [6]: 114%
viability, T/C [7]: 122%
viability, T/C [8]: 99.9%
viability, T/C [9]: 96.8%
viability, T/C [10]: 103%
viability, T/C [2]: 101%
viability, T/C [11]: 93.8%
viability, T/C [12]: 98%
viability, T/C [13]: 108%
viability, T/C [14]: 95.2%
viability, T/C [15]: 72.7%
viability, T/C [3]: 129%
viability, T/C [16]: 109%
viability, T/C [17]: 107%
viability, T/C [18]: 127%
viability, T/C [19]: 106%
viability, T/C [20]: 83.3%
viability, T/C [4]: 126%
viability, T/C [21]: 109%
viability, T/C [22]: 103%
viability, T/C [23]: 110%
viability, T/C [24]: 107%
viability, T/C [25]: 88.4%
viability, T/C [5]: 136%
viability, T/C [26]: 111%
viability, T/C [27]: 118%
viability, T/C [28]: 127%
viability, T/C [29]: 119%
viability, T/C [30]: 90.3%

COc1cc2nccc(Oc3ccc(NC(=O)C4(C(=O)Nc5ccc(F)cc5)CC4)cc3)c2cc1OC + C=CC(=O)N1CCN(c2nc(=O)n(-c3c(C)ccnc3C(C)C)c3nc(-c4c(O)cccc4F)c(F)cc23)C(C)C1
IC50 (second compound 0.1 µM): > 10000 nM
IC50 (second compound 0.316 µM): 3110 nM
IC50 (second compound 1 µM): > 10000 nM
IC50 (second compound 3.16 µM): 2580 nM
IC50 (second compound 10 µM): 723 nM
viability, T/C [1]: 115%
viability, T/C [6]: 96.3%
viability, T/C [7]: 91.7%
viability, T/C [8]: 104%
viability, T/C [9]: 65.1%
viability, T/C [10]: 69%
viability, T/C [2]: 105%
viability, T/C [11]: 96.6%
viability, T/C [12]: 97.1%
viability, T/C [13]: 96.3%
viability, T/C [14]: 49.3%
viability, T/C [15]: 48.5%
viability, T/C [3]: 108%
viability, T/C [16]: 115%
viability, T/C [17]: 98.4%
viability, T/C [18]: 109%
viability, T/C [19]: 63.7%
viability, T/C [20]: 57.2%
viability, T/C [4]: 106%
viability, T/C [21]: 92.8%
viability, T/C [22]: 98.2%
viability, T/C [23]: 82.3%
viability, T/C [24]: 43%
viability, T/C [25]: 34.4%
viability, T/C [5]: 82.6%
viability, T/C [26]: 80.6%
viability, T/C [27]: 54.3%
viability, T/C [28]: 58.1%
viability, T/C [29]: 10.7%
viability, T/C [30]: 18.5%
